Assay [1] has as its target T1, Src kinase domain (chicken c-Src residues 251-533) (Gallus gallus, UniProt P00523).
T1 construct: chicken c-Src (residues 251-533 and residues 83-533); made in house
The assay is described as follows: Continuous spectrophotometric kinase activity assay. In kind it is biochemical. The settings on record: Src kinase domain; 5 μM ATP, 100 μM Src optimal peptide.

The target of assay [2] is T2, Src83-533 (chicken c-Src 83-533) (Gallus gallus, UniProt P00523).
T2 construct: the regulatory SH3 and SH2 domains (chicken c-Src 83-533); made in house
The assay can be described thus: Kinase activity assay with longer Src construct including SH3 and SH2 domains. In kind it is biochemical. Conditions: Src wild-type construct containing SH3 and SH2 domains. The text has this:
(§1) Kinase domain constructs of human c-Abl (residues 229-512), chicken c-Src (residues 251-533 and residues 83-533), murine Lck (residues 227-509), and human Hck (residues 166-445) were expressed as previously described (Seeliger, Young et al. 2005; Seeliger, Nagar et al. 2007; the entire contents of each of which are incorporated by reference herein). Mutations were introduced into chicken c-Src (residues 251-533) (T338I, C277Q, L297M) by site-directed mutagenesis and verified by DNA sequencing.
In vitro kinase inhibition assays were performed using either a continuous spectrophotometric assay or a FRET-based endpoint assay. […]
To address this discrepancy, the two major differences between the fluorescent peptide-based Z′-LYTE assay and the continuous spectrophotometric assay employed here were investigated: the kinase construct used (full-length kinase in the Z-LYTE assay vs. kinase domain in the current study) and the peptide identity and concentration (5 μM fluorescent Abl-optimal substrate peptide in the previous study vs. 100 μM Src-optimal substrate peptide in the current study). […] The IC50 values determined for MC1.2 and MC4.1 were close to the concentration of the kinase used in the assay and therefore these values only represent an upper estimate of the real potency of these compounds.

In another assay the test system is Src Thr338Ile. The assay is described as follows: Inhibition of Src gatekeeper mutant. In kind it is biochemical, chicken.
Description: as §1
For the FRET-based endpoint assay, kinase assays were performed using Invitrogen's Z′-LYTE kinase assay using the Tyr 02 substrate peptide (based upon the optimal Abl substrate peptide […]) according to the manufacturer's instructions. Assays were performed at near KM ATP concentrations for full-length c-Src and full-length c-Src T338I-50 μM and 7 μM, respectively.

The target of another assay is T3, Src kinase domain (Gallus gallus, UniProt P00523).
T3 construct: chicken c-Src (residues 251-533 and residues 83-533); made in house
The assay is described as follows: Fluorescence anisotropy binding assay. The arrangement: species or system chicken. Conditions: fluorescein-labeled macrocycle, read-out: dissociation constant (KD). As for the experimental part: The change in fluorescence anisotropy of fluorescein-labeled MC1, MC4 and MC9 at 518 nm upon excitation at 492 nm was monitored with a HORIBA Jobin Yvon FluoroMax-4 (Edison, N.J.) spectrofluorimeter. Kinase was titrated to 0.5 μM of the fluorescently labeled macrocycle in 100 mM Tris pH 8.0, 10 mM MgCl2 at 25° C. After equilibration, the increase in the fluorescence anisotropy of the fluorescently labeled ligand was recorded and fitted against a quadratic binding equation in Kaleidagraph (Synergy Software, Reading Pa.) to yield the dissociation constant KD.
To clarify the inhibitory mechanism of the compounds further, the binding affinity of fluorescently labeled MC1, MC4, and MC9 to Src kinase domain was determined in a fluorescence anisotropy assay (FIG. 21).

In the next assay the target is Src kinase (Homo sapiens, UniProt P12931). The assay is described as follows: Z'-LYTE kinase assay (Invitrogen), Src. Conditions: Z'-LYTE; ATP near KM. Also on record: full-length kinase in the Z-LYTE assay vs. kinase domain in the current study; purchased Millipore. In kind it is biochemical. Here is the method: Nine macrocycles enriched in the Src selection (FIG. 5) and synthesized as described above were assayed in vitro for the ability to inhibit Src kinase activity. Kinase activity was assayed in the presence of varying concentrations of macrocycle using the FRET-based Z′-LYTE assay (Invitrogen).
Src kinase, sequence (P12931 whole entry, the tested form may be a part): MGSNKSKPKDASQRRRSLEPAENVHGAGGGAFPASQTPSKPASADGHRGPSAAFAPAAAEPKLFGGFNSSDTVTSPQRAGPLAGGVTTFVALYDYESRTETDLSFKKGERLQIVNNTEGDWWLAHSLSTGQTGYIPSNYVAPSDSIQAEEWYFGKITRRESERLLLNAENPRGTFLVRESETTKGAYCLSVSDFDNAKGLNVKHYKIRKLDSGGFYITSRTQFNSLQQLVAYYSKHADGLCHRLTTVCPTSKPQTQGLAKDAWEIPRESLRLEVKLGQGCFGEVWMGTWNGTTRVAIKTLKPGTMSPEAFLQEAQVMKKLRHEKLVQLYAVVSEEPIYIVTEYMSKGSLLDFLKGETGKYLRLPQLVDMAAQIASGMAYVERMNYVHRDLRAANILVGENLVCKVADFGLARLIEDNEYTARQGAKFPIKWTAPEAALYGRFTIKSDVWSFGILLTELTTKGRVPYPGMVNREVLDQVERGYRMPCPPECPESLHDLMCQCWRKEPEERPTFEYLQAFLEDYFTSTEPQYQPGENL
Src IC50 determinations and single-point inhibition measurements were performed using Invitrogen's Z′-LYTE Tyr 02 assay kit according to the manufacturer's protocols. All kinase assays were performed at ATP concentrations near KM,ATP values, except where noted otherwise. Active human Src kinase was obtained from Millipore. For kinome profiling and IC50 determinations against non-Src kinases, compounds were submitted to Invitrogen's SelectScreen Kinase Profiling Service.

Like-named read-outs stand apart in the source and are kept apart here.

On to `NC(=O)[C@@H]1CCNC(=O)[C@H](CCCNC(=O)c2cnccn2)NC(=O)[C@H](CC2CCCCC2)NC(=O)[C@H](C/C=C/c2ccccc2)NC(=O)/C=C\C(=O)N1` [cis-A11-B8-C10-D7], for which the IC50 came to 69 µM in assay [1]; 0.39 µM in assay [2]; 1 µM in the assay with Src Thr338Ile (Src Thr338Ile containing SH3 and SH2 domains); 25 µM at Src kinase. In addition, in the assay with Src Thr338Ile, the “lower potency against gatekeeper mutant than against Src wild-type” value is “about 3 fold”. Also, the Kd at Src kinase domain (250 μM AMP-PNP) was determined as 12.6 µM; at Src kinase domain (no competitor), 3.6 µM.
